Data on 4 compounds can be found in patent US20150315218A1, “SALTS OF PRODRUGS OF PIPERAZINE AND SUBSTITUTED PIPERIDINE ANTIVIRAL AGENTS” (Bristol-Myers Squibb Company, priority 2004, published 2015).

Data set [1] deals with HIV-1 T-tropic strain LAI. The experiment in a line: Antiviral assay: HIV-1 LAI infection of MT-2 cells, reverse transcriptase readout (EC50, Table 48). In kind it is cell-based. Particulars: Human immunodeficiency virus 1, MT2; read-out: EC50-LAI. From the text:
The materials and experimental procedures used to assess the anti-HIV activity of the parent compounds which are generated from the prodrugs in vivo are described below:
• The human T cell line MT-2 and PM1 (AIDS Research and Reference Reagent Program, National Institutes of Health) were maintained and propagated in Medium RPMI-1640 (Invitrogen, Carlsbad, Calif.), containing 10% fetal Bovine serum. (FBS, Sigma, St. Louis, Mo.).
• Laboratory strains of HIV-1—the T-tropic strain LAI was obtained through the AIDS Research and Reference Reagent Program, National Institutes of Health. It was amplified in MT-2 cells and titered using a virus yield assay (2). Detection was achieved through use of a reverse transcriptase assay (3), adapted for use with a Scintillation Proximity detection protocol (1) (Amersham Biosciences, Piscataway, N.J.).
• 1. Compounds stocks were prepared by dissolving in DMSO to 30 mM. For dilution plates, compounds were serially diluted 3-fold into DMSO, using 96-well polypropylene plates, so that the concentrations were 100-fold greater than the final assay concentration. For antiviral and cytotoxicity assays, 2 μl was added per well (1% final DMSO concentration). • 2. Compounds were added from dilution plates to 96 well tissue culture plates, containing 100 μl Medium RPMI-1640, containing 10% fetal bovine serum at a concentration of <20 μM. • 3. For antiviral assays, cells were infected at a multiplicity of infection of 0.005. After 1 h at 37° C., infected cells were diluted to 200,000 cells per ml in Medium RPMI-1640, containing 10% fetal bovine serum. 100 μl of this solution was added per well, giving a final volume of 200 μl. • 4. Plates were incubated at 37° C. in a humidified CO2 incubator and harvested after 5 days. • 5. Viral infections were monitored by measuring reverse transcriptase activity in the supernatants of infected wells as described above. The percent inhibition for each compound was calculated by quantifying the readout level in cells infected in the presence of each compound as a percentage of that observed for cells infected in the absence of compound and subtracting such a determined value from 100. • 6. An EC50 provides a method for comparing the antiviral potency of the compounds of this invention. The effective concentration for fifty percent inhibition (EC50) was calculated with the Microsoft Excel Xlfit curve fitting software. For each compound, curves were generated from percent inhibition calculated at 8 different concentrations by using a four paramenter logistic model (model 205).

The nature of data set [2]: Stability of prodrug in fresh EDTA blood (dog).
Protocol: (§2) The stability of Iab was studied in fresh blood and serum from rat, dog, monkey and human (n=2). The blood was collected in vacutainers containing K2EDTA (Becton Dickinson, Franklin Lakes, N.J.). The serum was collected in vacutainers containing no anticoagulant. Iab was incubated at a starting concentration of approximately 10 μM for 60-90 min at 37° C. Serial samples were taken at the pre-determined times. Aliquots of blood samples (200 μL) were first mixed with 100 μL of water followed by 400 μL of acetonitrile. The serum samples (50 μL) were added into microtainers containing K2EDTA (Becton Dickinson, Franklin Lakes, N.J.) followed by the addition of 100 μL of acetonitrile. The supernatant was analyzed for both Iab and IVa by LC/MS/MS. The stability of Ibb was studied in fresh blood and serum from rat, dog, monkey and human (n=2). The blood was collected in vacutainers containing K2EDTA (Becton Dickinson, Franklin Lakes, N.J.). The serum was collected in vacutainers containing no anticoagulant. Ibb was incubated at a starting concentration of approximately 15 μM for 90 min at 37° C. Serial samples were taken at the pre-determined times. Aliquots of blood samples (200 μL) were first mixed with 100 μL of water followed by 400 μL of acetonitrile. The serum samples (50 μL) were added into microtainers containing K2EDTA (Becton Dickinson, Franklin Lakes, N.J.) followed by the addition of 100 μL of acetonitrile. […] The stability of Icb was studied in fresh blood and serum from rat, dog, monkey and human (n=2). The blood was collected in vacutainers containing K2EDTA (Becton Dickinson, Franklin Lakes, N.J.). The serum was collected in vacutainers containing no anticoagulant. Icb was incubated at a starting concentration of approximately 10 μM for 90 min at 37° C. Serial samples were taken at the pre-determined times. Aliquots of blood samples (200 μL) were first mixed with 100 μL of water followed by 400 μL of acetonitrile. The serum samples (50 μL) were added into microtainers containing K2EDTA (Becton Dickinson, Franklin Lakes, N.J.) followed by the addition of 100 μL of acetonitrile.
A short description of data set [3]: Stability (hydrolysis) of prodrug in fresh serum (monkey). The conditions noted are these: Monkey Serum.
Protocol: as §2
Data set [4] is described as follows: physchem. Particulars: aqueous, aqueous buffer, thermodynamic from solid.
Data set [5] in a line: Stability of prodrug in fresh EDTA blood (rat). Particulars: Rat EDTA blood.
Protocol: as §2
The nature of data set [6]: Stability (hydrolysis) of prodrug in fresh serum (human). The conditions noted are these: Human Serum.
Data set [7] is described as follows: Stability of prodrug in fresh EDTA blood (monkey). The conditions noted are these: Monkey EDTA blood.
Protocol: as §2
A short description of data set [8]: Stability (hydrolysis) of prodrug in fresh serum (dog). The conditions noted are these: Dog Serum.
Protocol: as §2
A short description of data set [9]: Stability of prodrug in Tris-HCl buffer.
Protocol: The stability of Iab was also evaluated, as described above, in Tris-HCl buffer (0.1 M, pH 7.5). The stability of Ibb was also evaluated, as described above, in Tris-HCl buffer (0.1 M, pH 7.5). The stability of Icb was also evaluated, as described above, in Tris-HCl buffer (0.1 M, pH 7.5).
A short description of data set [10]: in vitro. Particulars: monkey, serum.
Protocol: as §2
The subject of data set [11] is rat hepatocytes. The data set can be described thus: Hydrolysis of prodrug in hepatocytes (rat). It counts as in vitro ADME. The procedure: (§1) The in vitro intrinsic clearance of Ibb in hepatocytes (Clint) was calculated as follows: Clint(μL/min/million cells)=Rate/CE where Rate is the rate of metabolism in hepatocytes (pmol/min/million cells), and CE is the concentration of Ibb in the incubation. The in vitro intrinsic clearance of Icb in hepatocytes (Clint) was calculated as follows: Clint(μL/min/million cells)=Rate/CE where Rate is the rate of metabolism in hepatocytes (pmol/min/million cells), and CE is the concentration of Icb in the incubation.

In data set [12] the test system is dog hepatocytes. The data set can be described thus: Hydrolysis of prodrug in hepatocytes (dog). In kind it is in vitro ADME. As to the method: as §1
The subject of data set [13] is monkey hepatocytes. The experiment in a line: Hydrolysis of prodrug in hepatocytes (monkey). In kind it is in vitro ADME. The procedure: as §1
Data set [14] is described as follows: in vitro. The conditions noted are these: dog, serum.
Protocol: as §2

The structures appear in SMILES notation. Converted amounts (≈) assume the structure as drawn. Counter-ions that a name gives are not always drawn.

On to `COc1cnc(-n2cnc(C)n2)c2[nH]cc(C(=O)C(=O)N3CCN(C(=O)c4ccccc4)CC3)c12` [IVc], for which, in [1], the concentration giving a half-maximal response (EC50) is under 1000 nM.
For `COc1ncc(OC)c2c(C(=O)C(=O)N3CCN(C(=O)c4ccccc4)CC3)c[nH]c12` [IVa, N-(benzoyl)-N′-[(4,7-dimethoxy-6-azaindol-3-yl)-oxoacetyl]piperazine], the “% IVa Formed (of starting concentration of Iab)” value (“% IVa Formed” for short) in data set [2] (Dog A EDTA blood (Table 15), 0 min) is given as 0.30%; in [2] (Dog A EDTA blood (Table 15), 20 min), 2.4%; in [2] (Dog A EDTA blood (Table 15), 40 min), 4.1%; in data set [2] (Dog A EDTA blood (Table 15), 60 min) it was 6.2%; in data set [2] (Dog A EDTA blood (repeat), 0 min), 0.63%; in [2] (Dog A EDTA blood (repeat), 15 min), 2.3%. In addition, the “% IVa Formed” value in [2] (Dog A EDTA blood (repeat), 30 min) is listed as 3.4%; in data set [2] (Dog A EDTA blood (repeat), 45 min), 4.8%; in data set [2] (Dog A EDTA blood (repeat), 60 min), 6.1%; in data set [2] (Dog B EDTA blood, 0 min), 0.68%; in data set [2] (Dog B EDTA blood, 15 min), 2.0%; in data set [2] (Dog B EDTA blood, 30 min), 3.5%. The “% IVa Formed” value came to 4.5% in data set [2] (Dog B EDTA blood, 45 min); 5.8% in data set [2] (Dog B EDTA blood, 60 min); 0.24% in data set [5] (0 min); 0.70% in data set [5] (20 min); 0.90% in [5] (40 min); 1.2% in data set [5] (60 min). Also, the “% IVa Formed” value in [7] (0 min) amounted to 0.13%; in [7] (20 min) it was 0.28%; in data set [7] (40 min), 0.48%; in data set [7] (60 min), 0.56%; in [9] (Tris-HCl buffer, 0 min), 0.11%; in data set [9] (Tris-HCl buffer, 20 min), 0.081%. Besides, the “% IVa Formed” value was found to be 0.076% in [9] (Tris-HCl buffer, 40 min) and 0.088% in [9] (Tris-HCl buffer, 60 min). Moreover, the “Iab / IVa Formed” value in data set [3] (37°C, 0 min) was found to be 0.20 µM; in data set [3] (15 min) it was 0.48 µM; in data set [3] (30 min), 0.75 µM; in [3] (45 min), 1.2 µM; in [3] (60 min), 1.5 µM; in [3] (90 min), 2.0 µM. Further, the “Iab / IVa Formed” value is 0.019 µM in data set [5] (37°C, 0 min); 0.056 µM in [5] (20 min); 0.072 µM in data set [5] (40 min); 0.093 µM in [5] (60 min); 0.10 µM in [6] (37°C, 0 min); 0.10 µM in data set [6] (15 min). Further, the “Iab / IVa Formed” value in data set [6] (30 min) stood at 0.15 µM; in data set [6] (45 min), 0.20 µM; in data set [6] (60 min), 0.24 µM; in data set [6] (90 min) it was 0.32 µM; in [7] (0 min), 0.011 µM; in [7] (20 min) it was 0.024 µM. The “Iab / IVa Formed” value in data set [7] (40 min) came to 0.041 µM; in [7] (60 min) it was 0.048 µM; in data set [8] (37°C, 0 min) it was 0.066 µM; in data set [8] (15 min) it was 0.85 µM; in data set [8] (30 min) it was 1.6 µM; in [8] (45 min), 2.5 µM. For the same compound, the “Iab / IVa Formed” value in data set [8] (60 min) is 3.2 µM; in data set [8] (90 min) it was 4.4 µM; in data set [9] (Tris-HCl buffer (0.1 M, pH 7.5), 37°C, 0 min) it was 0.011 µM; in data set [9] (Tris-HCl buffer, 20 min) it was 0.008 µM; in data set [9] (Tris-HCl buffer, 40 min) it was 0.008 µM; in [9] (Tris-HCl buffer, 60 min), 0.009 µM. Further, the solubility in [4] lay within 40 to 900 µg/mL (≈ 94.7 to 2130 µM). In addition, the EC50 in [1] was under 1000 nM.
The compound `O=C(C(=O)N1CCN(C(=O)c2ccccc2)CC1)c1c[nH]c2c(-n3ccnn3)ncc(F)c12` [IVb] had a solubility in [4] of 7 to 190 µg/mL (≈ 15.6 to 425 µM). For the same compound, the EC50 in data set [1] was under 1000 nM.
For the compound `COc1cnc(-n2cnc(C)n2)c2c1c(C(=O)C(=O)N1CCN(C(=O)c3ccccc3)CC1)cn2COP(=O)(O)O` [Icb, [3-[(4-benzoylpiperazin-1-yl)(oxo)acetyl]-4-methoxy-7-(3-methyl-1H-1,2,4-triazol-1-yl)-1H-pyrrolo[2,3-c]pyridin-1-yl]methyl dihydrogen phosphate, 2-amino-2-(hydroxymethyl)propane-1,3-diol salt (1:1)], the half-life at 10 μM stood at 0.5 h in data set [10] and 2.6 h in data set [14]. In addition, the figures for the “hydrolysis in the presence of hepatocytes” value in [11], in data set [12] and in [13] were “hydrolyzed”, “hydrolyzed” and “No turnover was observed”, respectively.

In general, EC50 refers to the concentration at which the effect is half-maximal. For orientation: solubility means how much of the substance goes into solution per volume. For orientation: half-life means the time needed for the level to fall by half in the phase considered.
